Assay results taken from EPA's ToxValDB 9.5.
“And” between values parts separate entries of the source, which are not always exact repeats. Equal values may be shown once.

Columns and labels:
Rattus norvegicus [1] = details: oral; for LOAEL: Fischer 344
Rattus norvegicus [2] = details: repeat dose other; oral
Rattus norvegicus [3] = details: oral, gavage
Rattus norvegicus [4] = details: subchronic
Rattus norvegicus [5] = details: subchronic, oral
Rattus norvegicus [6] = details: uterotrophic, injection, Active
Danio rerio = details: whole body
Rattus norvegicus [7] = tested on: Rattus norvegicus
[8] = chronic, duration: 120 days, F, AB-type, E2 + E2:T ratio + gene expression
[9] = chronic, duration: 120 days, M/F, AB-type, fertilization rate + malformation rate + survival rate
[10] = chronic, duration: 120 days, M, AB-type, E2 + E2:T ratio + gene expression + liver: vtg1 expression + T
[11] = developmental, duration: 21 days, M/F, developmental lesion
[12] = short-term, duration: 28 days, F, VTG expression
[13] = short-term, duration: 28 days, F, thymus: Free T3
[14] = reproduction developmental, duration: 4 days, oral, gavage, F, Sprague-Dawley, generation: P0, P0: dam body weight gain
[15] = short-term, duration: 3 days, injection, subcutaneous, F, Sprague-Dawley, uterus: absolute blotted uterine weight in the presence of EE
[16] = short-term, duration: 10 days, oral, gavage, M, BrlHan:WIST, body weight + male accessory sex gland: BC/LA weight (relative)
[17] = short-term, duration: 10 days, oral, gavage, M, BrlHan:WIST, male accessory sex gland: glans penis weight (relative)
[18] = short-term, duration: 10 days, oral, gavage, M, BrlHan:WIST, male accessory sex gland: relative bulbourethral gland weight in the presence of TP + penis: relative penis weight in the absence of TP
[19] = short-term, duration: 14 days, oral, gavage, M, Sprague-Dawley, body weight + serum LH + serum TCHO
[20] = short-term, duration: 14 days, oral, gavage, M, Sprague-Dawley, serum FSH
[21] = short-term, duration: 14 days, oral, gavage, M, Sprague-Dawley, serum T + testis: testis/body weight
[22] = short-term, duration: 28 days, oral, gavage, F, Sprague-Dawley, body weight
[23] = short-term, duration: 28 days, oral, gavage, F, Sprague-Dawley, heart: heart weight + thymus: serum T4
[24] = short-term, duration: 28 days, oral, gavage, M, Sprague-Dawley, adrenal gland: hypertrophy of zona fasciculata + body weight + heart: heart weight + liver: decreased hepatocytic glycogen + liver: liver …

## ClC=C(Cl)CCl [1,2,3-Trichloropropene]
Rattus norvegicus [1]; short-term, duration: 4 weeks, gavage, M/F, Crl:CD(SD), respiratory
  NOAEL: 30 mg/kg-day

## Clc1cc2oc3c(Cl)c(Cl)c(Cl)cc3c2cc1Cl [2,3,4,7,8-Pentachlorodibenzofuran]
Rattus norvegicus [2]
  LOAEL: 0.00016 mg/kg-day
  NOAEL: 1.6e-05 mg/kg-day
Rattus norvegicus [3]; chronic, duration: 105 weeks, F, Harlan Sprague-Dawley, hepatic, endocrine
  LOAEL: 6e-06 mg/kg-day
Rattus norvegicus [3]; developmental, duration: 1 days, M/F, Wistar, developmental
  NOAEL: 0.0005 mg/kg-day

## Nc1cccc([N+](=O)[O-])c1 [3-Nitroaniline]
Rattus norvegicus [1]; short-term, duration: 28 days, gavage, M/F
  LOAEL: 15 mg/kg-day

## CC(=O)CC(C)C [4-Methyl-2-pentanone]
Rattus norvegicus [2]
  NOAEL: 25 mg/kg-day
Rattus norvegicus [4]; duration: 13 weeks, oral, gavage, Kidney: Increased absolute weight in females + Kidney: Increased relative weight in females + Kidney: Increased urinary protein levels in …
  NOAEL: 250 mg/kg-day
Rattus norvegicus [4]; duration: 90 days, inhalation, intermittent, Kidney: Effects + Liver: Increased weight
  NOEL: 205 mg/m3

## Cc1ccc([N+](=O)[O-])cc1 [4-Nitrotoluene]
Rattus norvegicus [5]; diet, F, Fischer 344, Body Weight Changes: decrease + Food Consumption + Hematology: Hgb decrease, RBC decrease, MetHgb increase + Blood Chemistry: TP decrease, …
  NOEL: < 44 mg/kg-day
Rattus norvegicus [5]; diet, M/F, Fischer 344, Body Weight Changes: decrease + Food Consumption + Hematology: Hgb decrease, RBC decrease, MetHgb increase + Blood Chemistry: TP decrease, …
  NOEL: < 60 mg/kg-day
Rattus norvegicus [1]; subchronic, duration: 13 weeks, diet, M, Immune
  LOAEL: 42 mg/kg-day
Rattus norvegicus [6]; duration: 1 days, intraperitoneal
  LEL: 30 mg/kg-day

## Clc1cc(Cl)c(Cl)c(-c2cc(Cl)c(-c3cc(Cl)c(Cl)c(Cl)c3)c(Cl)c2Cl)c1 [Aroclor 5460]
Rattus norvegicus [1]; chronic, duration: 95 days, diet, M, albino
  NOAEL: 7.13 mg/kg-day

## Oc1ccc(C(c2ccc(O)cc2)(C(F)(F)F)C(F)(F)F)cc1 [Bisphenol AF]
Rattus norvegicus [5]; gavage, M, Sprague-Dawley, Clinical Observation: Salivation Perioral smudge + Body Weight Changes: Gain decrease + Food Consumption: decrease + Hematology: RBC …
  NOEL: < 30 mg/kg-day
Rattus norvegicus [6]; duration: 3 days, subcutaneous
  LEL: 4 mg/kg-day and 8 mg/kg-day and 4.04 mg/kg-day
Danio rerio; [8]
  LOEL: 0.125 mg/L
  NOEL: 0.025 mg/L
Danio rerio; [9]
  LOEL: 0.125 mg/L
  NOEL: 0.025 mg/L
Danio rerio; chronic, duration: 120 days, M/F, AB-type, hatchability
  LOEL: 0.005 mg/L
Danio rerio; [10]
  LOEL: 0.025 mg/L
  NOEL: 0.005 mg/L
Danio rerio; [11]
  LOEL: 1.5 mg/L
  NOEL: 1 mg/L
Danio rerio; short-term, duration: 21 days, M/F, vitellogenin
  LOEL: 0.5 mg/L
Danio rerio; [12]
  LOEL: 0.25 mg/L
  NOEL: 0.05 mg/L
Danio rerio; short-term, duration: 28 days, F, condition factor
  LOEL: 0.05 mg/L
Danio rerio; [13]
  LOEL: 1 mg/L
  NOEL: 0.25 mg/L
Danio rerio; short-term, duration: 28 days, M, 17beta-estradiol + VTG expression
  LOEL: 1 mg/L
Danio rerio; short-term, duration: 28 days, M, VTG expression
  NOEL: 0.25 mg/L
Danio rerio; short-term, duration: 28 days, M, body weight + length
  NOEL: 0.05 mg/L
Danio rerio; short-term, duration: 28 days, M, body weight + length + T
  LOEL: 0.25 mg/L
Rattus norvegicus [7]; [14]
  LOEL: 400 mg/kg-day
  NOEL: 300 mg/kg-day
Rattus norvegicus [7]; short-term, duration: 3 days, injection, subcutaneous, F, Crj:CD, body weight
  NOEL: 100 mg/kg-day
Rattus norvegicus [7]; short-term, duration: 3 days, injection, subcutaneous, F, Crj:CD, uterus: uterine dry weight (absolute) + uterus: uterine dry weight (relative)
  LOEL: 8 mg/kg-day
Rattus norvegicus [7]; short-term, duration: 3 days, injection, subcutaneous, F, Sprague-Dawley, body weight in the absence of EE + body weight in the presence of EE
  NOEL: 100 mg/kg-day
Rattus norvegicus [7]; short-term, duration: 3 days, injection, subcutaneous, F, Sprague-Dawley, uterus: absolute blotted uterine weight in the absence of EE + uterus: relative blotted uterine weight in the absence of EE + uterus: …
  LOEL: 4 mg/kg-day
Rattus norvegicus [7]; [15]
  LOEL: 20 mg/kg-day
  NOEL: 4 mg/kg-day
Rattus norvegicus [7]; [16]
  LOEL: 200 mg/kg-day
  NOEL: 50 mg/kg-day
Rattus norvegicus [7]; short-term, duration: 10 days, oral, gavage, M, BrlHan:WIST, male accessory sex gland: Cowper's gland weight (relative) + male accessory sex gland: seminal vesicle weight (relative) + male accessory …
  NOEL: 600 mg/kg-day
Rattus norvegicus [7]; [17]
  LOEL: 600 mg/kg-day
  NOEL: 200 mg/kg-day
Rattus norvegicus [7]; short-term, duration: 10 days, oral, gavage, M, BrlHan:WIST, male accessory sex gland: relative bulbourethral gland weight in the absence of TP + male accessory sex gland: relative seminal vesicle …
  NOEL: 600 mg/kg-day
Rattus norvegicus [7]; [18]
  LOEL: 600 mg/kg-day
  NOEL: 200 mg/kg-day
Rattus norvegicus [7]; short-term, duration: 10 days, oral, gavage, M, BrlHan:WIST, male accessory sex gland: relative seminal vesicle weight in the presence of TP + penis: relative penis weight in the presence of TP
  LOEL: 50 mg/kg-day
Rattus norvegicus [7]; [19]
  LOEL: 50 mg/kg-day
  NOEL: 10 mg/kg-day
Rattus norvegicus [7]; [20]
  LOEL: 10 mg/kg-day
  NOEL: 2 mg/kg-day
Rattus norvegicus [7]; [21]
  LOEL: 200 mg/kg-day
  NOEL: 50 mg/kg-day
Rattus norvegicus [7]; short-term, duration: 14 days, oral, gavage, M, Sprague-Dawley, testis: testis weight
  NOEL: 200 mg/kg-day
Rattus norvegicus [7]; short-term, duration: 28 days, oral, gavage, F, Sprague-Dawley, adrenal gland: hypertrophy of zona fasciculata + bone marrow: decreased hematopoiesis + brain: brain weight + liver: decreased hepatocytic …
  NOEL: 100 mg/kg-day
Rattus norvegicus [7]; [22]
  LOEL: 30 mg/kg-day
  NOEL: 10 mg/kg-day
Rattus norvegicus [7]; [23]
  LOEL: 100 mg/kg-day
  NOEL: 30 mg/kg-day
Rattus norvegicus [7]; short-term, duration: 28 days, oral, gavage, M, Sprague-Dawley, adrenal gland: adrenals weight + bone marrow: decreased hematopoiesis + brain: brain weight + spleen: decreased extramedullary hematopoiesis…
  NOEL: 100 mg/kg-day
Rattus norvegicus [7]; [24]
  LOEL: 100 mg/kg-day
  NOEL: 30 mg/kg-day
